Source: US10238642B2, “Methods for treating neurogenic orthostatic hypotension” (Theravance Biopharma R&D IP, LLC, priority 2016, dated 2019)
Several values for one entry are separate records, joined by “and”; a condition that tells them apart may be missing. Equal entries are not always repeated.

Key:
subjects with nOH = experiment: Phase 2 clinical study in subjects with nOH, Part A (dose escalation); format: in vivo, human; parameters: key to Improvement in Seated SBP / Improvement in Time Standing / Improvement in Dizziness or Lightheadedness: ✓: Dose-related improvement observed relative to placebo
From the text: A Phase 2 clinical trial study is being conducted with 4-[2-(2,4,6-trifluorophenoxymethyl)phenyl]piperidine hydrochloride (“Study Compound”). The study is a multicenter, randomized, two-part, single-(Part A) and double-blind (Part B) study of the Study Compound versus placebo in subjects with nOH. An open-label, extension study to evaluate efficacy, safety and tolerability of the Study Compound will also be conducted (Part C). Part A follows a daily, single, escalating dose design starting with placebo on Day 1, followed by a dose of 1 mg of Study Compound on Day 2, and proceeding to escalating higher doses of Study Compound on a daily basis up to a maximum dose of 10 mg based on safety, tolerability, and determination of a pressor effect.
Subjects included in the study are male or female between the age of 40 and 80 years (inclusive) that have been diagnosed with symptomatic orthostatic hypotension due to pure autonomic failure, multiple system atrophy or Parkinson's disease (i.e., PD plus symptoms). At screening, autonomic function testing is conducted to confirm the diagnosis of autonomic dysfunction including sinus arrhythmia and the Valsalva maneuver.
In Part A, all doses (Study Compound and placebo) are administered in a single-blind manner (i.e., subject remains blinded) using an oral dosing solution. Up to 30 subjects are enrolled in Part A. Two days before the start of Part A, subjects are admitted to the clinical research center (CRC) where they remain during the entire dose escalation period. On Day 1, subjects receive a single dose of placebo. On Day 2, subjects receive a single 1 mg dose of Study Compound. On each subsequent day, subjects receive a single escalating dose of Study Compound as follows: 2.5 mg on Day 3; 5 mg on Day 4; 10 mg on Day 5 unless the following preset stopping criteria occur: • (a) a determination from the Investigator (in collaboration with the Sponsor) that administration of the subsequent next dose may pose a safety concern; • (b) SBP ≥180 mm or DBP ≥110 mm in the sitting position replicated 2 more times over an hour; • (c) intolerable side effects as determined by the Investigator; or • (d) subject receives maximum dose of study medication specified by the protocol.
Once the subject meets any of the above criteria, no further dose escalation is performed. Following a post-dosing observation day in the clinic, the subject is released from the CRC.
Seated and standing systolic blood pressure and completion of an Orthostatic Hypotension Symptom Assessment (OHSA) questionnaire are used to assess efficacy. For Part C, ambulatory blood pressure monitoring is used if available to measure blood pressure every 2 hours for 24-hour period before dosing on Day 1; and 72 to 48 hours before Day 15, Day 29, Day 85 and Day 169 clinic visits. Additionally, blood pressure is taken 20-30 mins before eating each morning about being supine (30 degree elevation) for at least 10 mins.
For both Parts A and B, the primary study endpoint is the difference from placebo of seated systolic blood pressure at 6 to 8 hours after drug administration. For Part A, placebo refers to the Day 1 visit, and the difference from placebo refers to the time-matched difference from each Study Compound dosing day (Days 2 through 5) relative to placebo dosing (Day 1). For Part C, primary study endpoint is improvement in the Likert scale for “dizziness, lightheadedness, feeling faint, or feeling like you might black out” (OHSA question 1) at week 4. […]

[1] = Differential scanning calorimetry; format: physicochemical; details: heated 10° C./min from 22° C. to 250° C.
Experimental: Differential scanning calorimetry (DSC) was performed using a TA Instruments Model Q-100 module with a Thermal Analyst controller. Data were collected and analyzed using TA Instruments Thermal Solutions software. A 2.8 mg sample of the crystalline hydrochloride salt of Example 8 was accurately weighed into a covered aluminum pan. After a 5 minute isothermal equilibration period at 22° C., the sample was heated using a linear heating ramp of 10° C./min from 22° C. to 250° C. A representative DSC thermograph is shown in FIG. 2 of U.S. Pat. No. 8,304,433 B2.

other CYP450 enzymes = details: cited from earlier work
[2] = individual patient, Part A, oral solution up to 10 mg/day, vs placebo, preliminary

| Compound | MSA patients showing improvement relative to placebo in at least one category (subjects with nOH; MSA patients completing Part A, 6 of 6) [%] | Improvement in Dizziness or Lightheadedness (subjects with nOH; [2]) | Improvement in Time Standing (subjects with nOH; [2]) | Improvement in Seated SBP (subjects with nOH; individual patient, Part A, oral solution up to 10 mg/day, vs placebo, preliminary, Hydrochloride) | patients showing an improvement relative to placebo in at least one of seated SBP, standing time, dizziness or lightheadedness (subjects with nOH; patients completing Part A, 10 of 12) [%] | thermal stability by DSC [1] | impact of inhibition of other CYP450 enzymes on metabolism (other CYP450 enzymes) |
| --- | --- | --- | --- | --- | --- | --- | --- |
| Cl.Fc1cc(F)c(OCc2ccccc2C2CCNCC2)c(F)c1 [4-[2-(2,4,6-Trifluorophenoxymethyl)phenyl]piperidine Hydrochloride] | 100 | ✓ | ✓ | ✓ (6×) and ✓^2 | 83 | excellent thermal stability |  |
| CNCC[C@@H](Oc1ccccc1C)c1ccccc1 [atomoxetine] |  |  |  |  |  |  | not significantly impacted |
